# Molecular target: T1, E-selectin (Homo sapiens, UniProt P16581)
# T1 sequence (P16581 whole entry): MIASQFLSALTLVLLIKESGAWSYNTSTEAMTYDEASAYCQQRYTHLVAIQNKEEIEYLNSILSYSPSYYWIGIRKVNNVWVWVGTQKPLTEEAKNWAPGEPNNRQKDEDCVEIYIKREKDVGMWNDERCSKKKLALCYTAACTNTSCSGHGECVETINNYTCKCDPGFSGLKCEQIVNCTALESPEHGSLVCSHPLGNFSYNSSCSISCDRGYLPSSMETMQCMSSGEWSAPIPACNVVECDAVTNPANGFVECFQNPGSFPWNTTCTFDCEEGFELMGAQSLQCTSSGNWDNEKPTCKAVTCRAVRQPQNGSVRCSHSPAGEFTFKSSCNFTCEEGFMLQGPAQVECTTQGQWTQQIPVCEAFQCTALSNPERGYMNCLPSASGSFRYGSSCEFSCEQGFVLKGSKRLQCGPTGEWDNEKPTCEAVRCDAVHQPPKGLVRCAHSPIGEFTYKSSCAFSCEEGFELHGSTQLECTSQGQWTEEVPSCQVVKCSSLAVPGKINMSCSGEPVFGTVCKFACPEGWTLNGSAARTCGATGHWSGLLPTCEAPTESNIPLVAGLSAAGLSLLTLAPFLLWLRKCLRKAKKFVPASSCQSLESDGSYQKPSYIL
# Assay: Inhibitory activity against Selectin E
compound,measurement,value
CC(=O)N[C@H]1[C@H]([C@H](O)[C@H](O)CO)O[C@@](O[C@H]2[C@@H](O)[C@@H](CO)O[C@@H](O[C@@H]([C@H](O[C@@H]3O[C@@H](C)[C@@H](O)[C@@H](O)[C@@H]3O)[C@H](C=O)NC(C)=O)[C@H](O)CO)[C@@H]2O)(C(=O)O)C[C@@H]1O [SIALYL LEWIS X],IC50,< 1000 µM

# Source: ChEMBL document CHEMBL1149996, “Combined glycomimetic and multivalent strategies for the design of potent selectin antagonists” (Bioorg Med Chem Lett, 1996)
